# Data as given in ChEMBL document CHEMBL3352076, “Synthesis of novel triazole-linked mefloquine derivatives: biological evaluation against Plasmodium falciparum” (Bioorg Med Chem Lett, 2014).
# System: Plasmodium falciparum
# Test: Antimalarial activity against chloroquine-sensitive Plasmodium falciparum NF54
# Type: functional, organism-based
row,IC50,Structure (SMILES)
1,25.6 µM,FC(F)(F)c1cc(-n2cc(CN3CCN(Cc4ccccc4)CC3)nn2)c2cccc(C(F)(F)F)c2n1
2,10.6 µM,FC(F)(F)c1cc(-n2cc(CN3CCN(Cc4ccncc4)CC3)nn2)c2cccc(C(F)(F)F)c2n1
3,1.3 µM,FC(F)(F)c1cc(-n2cc(CN3CCN(Cc4c[nH]c5ccccc45)CC3)nn2)c2cccc(C(F)(F)F)c2n1
4,31.8 µM,FC(F)(F)c1cc(-n2cc(CN3CCN(C4CCCCC4)CC3)nn2)c2cccc(C(F)(F)F)c2n1
5,14.1 µM,FC(F)(F)c1cc(-n2cc(CN3CCN(C4C5CC6CC(C5)CC4C6)CC3)nn2)c2cccc(C(F)(F)F)c2n1 (stereo unspecified)
6,3.26 µM,FC(F)(F)c1cc(-n2cc(CN(C3CCCCC3)C3CCCCC3)nn2)c2cccc(C(F)(F)F)c2n1
7,9.1 µM,FC(F)(F)c1cc(-n2cc(CN(Cc3ccccc3)Cc3ccccc3)nn2)c2cccc(C(F)(F)F)c2n1
8,4.8 µM,CC(C)N(Cc1cn(-c2cc(C(F)(F)F)nc3c(C(F)(F)F)cccc23)nn1)C(C)C
9,1 µM,FC(F)(F)c1cc(-n2cc(CNC3C4CC5CC(C4)CC3C5)nn2)c2cccc(C(F)(F)F)c2n1 (stereo unspecified)
10,2.8 µM,CC(C)(C)NCc1cn(-c2cc(C(F)(F)F)nc3c(C(F)(F)F)cccc23)nn1

row,Structure (SMILES),IC50
1,"O[C@@H](c1cc(C(F)(F)F)nc2c(C(F)(F)F)cccc12)[C@H]1CCCCN1 [(S,R)-MEFLOQUINE]",20 µM
